According to ChEMBL document CHEMBL1201862, “PubChem BioAssay data set” (2004):
Each block holds one molecule with its values, some of them ahead of it. Active and inactive are the calls of the source.

Experiments:
[1] = molecular target: Voltage-dependent T-type calcium channel subunit alpha-1H (Homo sapiens, UniProt O95180); assay: inhibition of CACNA1H calcium flux – cell-based, SynthLib3 library, HEK293 Cav3.2, fluorescence (AID 493041); assay type: functional
[2] = molecular target: Phosphoethanolamine/phosphocholine phosphatase (Homo sapiens, UniProt Q8TCT1); assay: SAR assay for compounds that inhibit PHOSPHO1. [Related pubchem assays (depositor defined):AID1545, AID1565, AID1574]
Chain of Phosphoethanolamine/phosphocholine phosphatase (Q8TCT1 whole entry): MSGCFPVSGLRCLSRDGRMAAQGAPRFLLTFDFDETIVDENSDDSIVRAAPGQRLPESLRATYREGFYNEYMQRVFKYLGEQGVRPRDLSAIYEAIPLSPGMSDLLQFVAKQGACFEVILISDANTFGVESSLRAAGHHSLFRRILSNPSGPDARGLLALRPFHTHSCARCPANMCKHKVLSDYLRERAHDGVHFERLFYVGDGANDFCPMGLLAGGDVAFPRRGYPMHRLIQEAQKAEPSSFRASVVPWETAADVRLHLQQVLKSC

[3] = molecular target: Phosphomannomutase 2 (Homo sapiens, UniProt O15305); assay: Counter screen SAR assay for PMM2 inhibitors via a fluorescence intensity assay. [Related pubchem assays (depositor defined):AID1545, AID1574]
Chain of Phosphomannomutase 2 (O15305 whole entry): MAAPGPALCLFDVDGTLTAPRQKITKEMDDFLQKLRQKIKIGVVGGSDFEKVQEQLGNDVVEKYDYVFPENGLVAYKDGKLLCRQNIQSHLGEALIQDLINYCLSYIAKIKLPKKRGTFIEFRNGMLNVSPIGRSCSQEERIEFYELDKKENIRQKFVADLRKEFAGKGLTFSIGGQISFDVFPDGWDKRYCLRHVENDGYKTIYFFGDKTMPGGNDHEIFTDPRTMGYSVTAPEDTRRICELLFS

[4] = molecular target: T1, Mannose-6-phosphate isomerase (Homo sapiens, UniProt P34949); assay: phosphomannose isomerase inhibition – biochemical, fluorescence intensity, confirmation (AID 1535)
T1 sequence (P34949 whole entry): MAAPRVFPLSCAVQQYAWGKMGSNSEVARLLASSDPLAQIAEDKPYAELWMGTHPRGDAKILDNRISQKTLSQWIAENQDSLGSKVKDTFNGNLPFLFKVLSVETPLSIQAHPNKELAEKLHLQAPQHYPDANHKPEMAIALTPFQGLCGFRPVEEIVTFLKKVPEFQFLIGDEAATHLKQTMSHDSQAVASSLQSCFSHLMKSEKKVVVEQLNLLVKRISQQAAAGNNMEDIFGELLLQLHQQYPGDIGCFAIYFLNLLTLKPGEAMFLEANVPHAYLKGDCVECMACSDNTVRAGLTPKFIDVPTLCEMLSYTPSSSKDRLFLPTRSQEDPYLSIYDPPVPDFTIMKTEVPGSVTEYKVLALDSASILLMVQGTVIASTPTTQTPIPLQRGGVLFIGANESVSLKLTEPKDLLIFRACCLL

[5] = molecular target: Mu-type opioid receptor (Homo sapiens, UniProt P35372); assay: SAR Analysis of Agonists of the MOR Receptor using an Image-Based Assay - Set 3. [Related pubchem assays (depositor defined):AID1777, AID1785, AID1786, AID1966, AID2133, AID2136, AID2284, AID2285, AID2352]; assay type: functional
Chain of Mu-type opioid receptor (P35372 whole entry): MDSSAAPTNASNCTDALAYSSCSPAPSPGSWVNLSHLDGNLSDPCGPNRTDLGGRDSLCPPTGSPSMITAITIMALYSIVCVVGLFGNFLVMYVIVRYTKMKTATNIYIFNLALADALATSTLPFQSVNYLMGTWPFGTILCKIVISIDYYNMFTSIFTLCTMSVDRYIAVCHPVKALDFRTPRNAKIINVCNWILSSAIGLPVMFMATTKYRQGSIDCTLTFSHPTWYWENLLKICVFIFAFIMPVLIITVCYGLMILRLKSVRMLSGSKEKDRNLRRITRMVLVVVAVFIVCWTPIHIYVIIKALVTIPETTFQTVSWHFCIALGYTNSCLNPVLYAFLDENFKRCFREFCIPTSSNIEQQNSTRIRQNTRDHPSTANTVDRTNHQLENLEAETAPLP

[6] = molecular target: T2, Kappa-type opioid receptor (Homo sapiens, UniProt P41145); assay: SAR analysis of small molecule agonists of the kappa opioid receptor via a luminescent beta-arrestin assay - Set 3. [Related pubchem assays (depositor defined):AID1777, AID1785, AID1786, AID1966, AID2133, AID2136, AID2284, AID2500]; assay type: functional
T2 sequence (P41145 whole entry): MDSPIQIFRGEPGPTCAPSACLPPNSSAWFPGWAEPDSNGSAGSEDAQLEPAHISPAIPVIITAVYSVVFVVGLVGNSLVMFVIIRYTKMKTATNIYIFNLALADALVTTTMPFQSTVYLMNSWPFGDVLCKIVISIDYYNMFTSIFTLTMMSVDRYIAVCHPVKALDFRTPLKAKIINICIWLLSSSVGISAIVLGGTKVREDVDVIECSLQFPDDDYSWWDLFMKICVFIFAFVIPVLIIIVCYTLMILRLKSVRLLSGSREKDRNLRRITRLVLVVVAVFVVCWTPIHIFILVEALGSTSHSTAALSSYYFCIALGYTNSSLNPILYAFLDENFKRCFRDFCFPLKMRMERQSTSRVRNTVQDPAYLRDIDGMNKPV

[7] = molecular target: Delta-type opioid receptor (Homo sapiens, UniProt P41143); assay: SAR Analysis of Agonists of the DOR Receptor using an Image-Based Assay - Set 3. [Related pubchem assays (depositor defined):AID1777, AID1786]; assay type: functional
Chain of Delta-type opioid receptor (P41143 whole entry): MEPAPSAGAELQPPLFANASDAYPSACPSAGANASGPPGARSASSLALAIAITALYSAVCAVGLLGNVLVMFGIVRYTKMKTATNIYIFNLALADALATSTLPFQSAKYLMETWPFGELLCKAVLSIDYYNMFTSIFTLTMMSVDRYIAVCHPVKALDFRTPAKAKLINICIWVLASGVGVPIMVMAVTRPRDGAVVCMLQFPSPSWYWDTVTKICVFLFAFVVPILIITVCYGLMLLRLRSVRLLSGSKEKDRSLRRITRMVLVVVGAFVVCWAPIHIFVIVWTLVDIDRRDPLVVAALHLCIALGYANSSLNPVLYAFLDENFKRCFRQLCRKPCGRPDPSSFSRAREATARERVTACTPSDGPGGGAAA

[8] = molecular target: T2, Kappa-type opioid receptor; assay: kappa opioid receptor activation by imaging – image-based, set 3, SAR follow-up (AID 488833); assay type: functional
[9] = tested on: HEK293; assay: cells; conditions: Homo sapiens;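 further: cells exposed to compound for 14 hours overnight before viability readout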
[10] = molecular target: Nucleotide-binding oligomerization domain-containing protein 1 (Homo sapiens, UniProt Q9Y239); assay: blockers of NOD1 pathway activity – revised, SAR follow-up (AID 2333); assay type: functional
Chain of Nucleotide-binding oligomerization domain-containing protein 1 (Q9Y239 whole entry, the tested form may be a part): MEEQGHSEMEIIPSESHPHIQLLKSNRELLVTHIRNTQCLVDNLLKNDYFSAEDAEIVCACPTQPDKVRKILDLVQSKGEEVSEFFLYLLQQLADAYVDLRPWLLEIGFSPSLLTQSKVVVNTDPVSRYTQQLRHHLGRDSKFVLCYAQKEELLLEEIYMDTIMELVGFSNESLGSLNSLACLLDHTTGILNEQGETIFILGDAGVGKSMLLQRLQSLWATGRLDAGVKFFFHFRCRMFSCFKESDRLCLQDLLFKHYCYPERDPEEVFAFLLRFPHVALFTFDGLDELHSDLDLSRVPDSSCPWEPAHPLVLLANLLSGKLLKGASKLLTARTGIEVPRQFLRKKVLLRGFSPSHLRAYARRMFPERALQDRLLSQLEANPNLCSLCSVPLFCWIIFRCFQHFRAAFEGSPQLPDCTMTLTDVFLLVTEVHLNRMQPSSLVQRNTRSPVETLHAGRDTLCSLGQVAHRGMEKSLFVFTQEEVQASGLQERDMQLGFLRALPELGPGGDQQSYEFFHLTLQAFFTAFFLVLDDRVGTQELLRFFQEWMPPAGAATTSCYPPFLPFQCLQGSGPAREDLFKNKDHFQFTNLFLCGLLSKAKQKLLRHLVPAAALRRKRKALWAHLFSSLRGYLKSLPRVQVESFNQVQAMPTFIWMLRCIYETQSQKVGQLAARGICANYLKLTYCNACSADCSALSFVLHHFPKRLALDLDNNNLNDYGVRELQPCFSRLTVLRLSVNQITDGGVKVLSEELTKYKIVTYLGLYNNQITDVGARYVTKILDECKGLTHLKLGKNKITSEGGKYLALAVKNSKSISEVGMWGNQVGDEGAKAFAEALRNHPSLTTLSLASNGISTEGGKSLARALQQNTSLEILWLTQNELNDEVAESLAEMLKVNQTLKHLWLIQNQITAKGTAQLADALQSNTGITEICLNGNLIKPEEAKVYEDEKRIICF

[11] = molecular target: Tumor necrosis factor (Homo sapiens, UniProt P01375); assay: analog potency on TNFa NF-kB signaling – cell-based, revised, SAR follow-up (AID 2337); assay type: functional
Chain of Tumor necrosis factor (P01375 whole entry): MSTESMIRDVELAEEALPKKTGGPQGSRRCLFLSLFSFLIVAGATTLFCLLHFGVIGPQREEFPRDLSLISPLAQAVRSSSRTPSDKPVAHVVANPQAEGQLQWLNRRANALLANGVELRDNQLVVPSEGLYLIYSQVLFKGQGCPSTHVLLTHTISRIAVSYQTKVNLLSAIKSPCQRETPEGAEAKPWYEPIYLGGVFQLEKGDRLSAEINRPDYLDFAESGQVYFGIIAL

EC50 [1]: 10 µM (active)
SMILES: CCC(CC)CN1CCC[C@H](NC(=O)COc2ccc(F)c(Cl)c2)C1

IC50 [2]: 0.755 µM (active)
IC50 [3]: 26.9 µM (active)
IC50 [4]: 24.1 µM (active)
SMILES: CCN(CC)CCOC(=O)c1ccc(-n2sc3ccccc3c2=O)cc1

EC50 [5]: > 32 µM (inactive)
EC50 [6]: 6.62 µM (active)
EC50 [7]: > 64 µM (inactive)
EC50 [8]: 18.7 µM (inactive)
SMILES: COC(=O)c1ccc(CSc2nnc(-c3ccccn3)n2Cc2ccco2)cc1

SMILES: CC(=O)N1c2ccc(S(=O)(=O)N3CCN(c4ccc(C)cc4)CC3)cc2CC1C (stereo unspecified)
IC50 [9]: > 20 µM (inactive)
IC50 [10]: 5.76 µM (active)
IC50 [11]: 4.32 µM (active)
